This is an account of results in PMC9158485, “Highly Efficient Biotransformation of Phenolic Glycosides Using a Recombinant β-Glucosidase From White Rot Fungus Trametes trogii” (Frontiers in Microbiology, 2022).

The test relates to T1, TtBgl3.
T1 construct: calculated 97 kDa; primer-encoded N-terminus MSRDFL, C-terminus FTWNGV; GH3, GH3_C and Fn3-like domains
In words: release of 4-nitrophenol at […] nm, Lineweaver-Burk. Format: biochemical, Trametes trogii. Conditions: 50°C, pH 5.5 (methods: phosphate citrate buffer 200 mM, pH 5.0, 55°C).

In the case of `O=[N+]([O-])c1ccc(O[C@@H]2O[C@H](CO)[C@@H](O)[C@H](O)[C@H]2O)cc1` [4-nitrophenyl β-D-glucopyranoside], the Km worked out at 550 µM.

Usually Km stands for the concentration of substrate that gives half-maximal velocity.
